Measured values reported in US20210198256A1, “COMPOUNDS FOR THE DEGRADATION OF BRD9 OR MTH1” (C4 Therapeutics, Inc., priority 2018, published 2021).

Tested on: SMART-CAR_MTH1-WT (Jurkat.2 cells)
Test: HTFC Assay (HTFC DC50)
Type: cell-based, human
Conditions: Jurkat.2 (SMART-CAR_MTH1-WT) cells, 4 hours at 37° C., FITC anti-HA staining, flow cytometry
Procedure: FITC anti-HA.11 epitope tag antibody (Biolegend #901507) FITC Mouse IgG1 k isotope control antibody (Biolegend #400108)
Dry dispense 10 nL/well of compound+90 […] into 96-well V-bottom plates: 4 compounds/plate in 11-point dose response in biological duplicates. Column 12 as DMSO controls.
• 1. Plate Jurkat.2 (SMART-CAR_MTH1-WT) cells with Combi on top of dry dispensed compound: 500,000 cells/mL, 100 uL/well • 2. Incubate for 4 hours at 37° C. • 3. Fixation, permeabilization, and staining: • a. Centrifuge at 1500 rpm for 7 minutes, remove supernatant. • b. Add 100 μl of Fixation/Permeabilization Solution, seal plates, vortex, pulse spin, and incubate at 4° C. for 30 minutes. • c. Centrifuge at 1500 rpm for 7 minutes, remove supernatant. • d. Dilute BD Perm/Wash Buffer to 1× with milliQ water. • e. Wash with 200 uL of BD Perm/Wash Buffer, seal plates, vortex. • f. Centrifuge at 1500 rpm for 7 minutes, remove supernatant. • g. Wash with 200 uL of BD Perm/Wash Buffer, seal plates, vortex. (Option to stop, store at 4° C. if needed) • h. Centrifuge at 1500 rpm for 7 minutes, remove supernatant. • i. Add 50 uL BD Perm/Wash Buffer containing 1:1000 of HA-FITC (Well A12:D12) or IgG-FITC (Well F12:H12) directly conjugated antibody, seal plates, vortex, pulse spin, and incubate at 4° C. for 1 hour. • j. Centrifuge at 1500 rpm for 7 minutes, remove supernatant. • k. Wash with 200 uL of BD Perm/Wash Buffer, seal plates, vortex. • 4. Centrifuge at 1500 rpm for 7 minutes, remove supernatant. • a. Resuspend in 200 ul of BD Perm/Wash Buffer. (Option to stop, store at 4° C. if needed)
• 1. Use analysis from template HTFC file. • 2. Export statistics by going to Tools>Group stats, save as a .csv file with the plate barcode as the name. • 3. Remove all columns from this file except for “Well”, “Sample ID”, “Date”, and “HA+.Mean.Y Mean for HA+ gated by P01.cells”. • 4. Create a New DB Analysis in Scinamic using the “HTFC-Cell Pharm” template. • 5. Load Incyte file “barcode”.csv. • 6. Load Echo file with the generated Echo report (P:\LabData\Echo\Project\SMARTCAR\Echo Report\Labcyte Echo Dose-Response) • 7. Edit Platemap.xlsx with the plate barcodes. • 8. Load Plate Map with this file. • 9. Cleanup compound Ids, mask control outliers, and assign curves.
Using the above assay the HTFC DC50 data was determined for the compounds in Table 2 below.
Example 6: HiBit and HTFC DC50 Data for Representative Compounds of the Present Invention

DC50 [nM] | SMILES
< 100 | CNC(=O)c1cnc2ccc(-c3ccc(C(=O)NCCCN4CCC(Nc5cccc6c5C(=O)N(C5CCC(=O)NC5=O)C6=O)CC4)cc3)cc2c1Nc1ccccc1 (centres unmarked) [Compound 366, 4-anilino-6-[4-[3-[4-[[2-(2,6-dioxo-3-piperidyl)-1,3-dioxo-isoindolin-4-yl]amino]-1-piperidyl]propylcarbamoyl]phenyl]-N-methyl-quinoline-3-carboxamide]
< 100 | CNC(=O)c1cnc2ccc(-c3ccc(C(=O)NCCCCNC(=O)CNc4cccc5c4C(=O)N(C4CCC(=O)NC4=O)C5=O)c(F)c3)cc2c1Nc1ccccc1 (centres unmarked) [Compound 350, 4-anilino-6-[4-[4-[[2-[[2-(2,6-dioxo-3-piperidyl)-1,3-dioxo-isoindolin-4-yl]amino]acetyl]amino]butylcarbamoyl]-3-fluoro-phenyl]-N-methyl-quinoline-3-carboxamide]
< 100 | CNC(=O)c1cnc2cc(OC)c(-c3cnc(C(=O)NCCCCn4cc(CNc5cccc6c5C(=O)N(C5CCC(=O)NC5=O)C6=O)nn4)cn3)cc2c1Nc1ccccc1 (centres unmarked) [Compound 380, 6-(5-((4-(4-(((2-(2,6-dioxopiperidin-3-yl)-1,3-dioxoisoindolin-4-yl)amino)methyl)-1H-1,2,3-triazol-1-yl)butyl)carbamoyl)pyrazin-2-yl)-7-methoxy-N-methyl-4-(phenylamino)quinoline-3-carboxamide]
< 100 | CNC(=O)c1cnc2ccc(NCCCCCCCCCCNC(=O)COc3cccc4c3C(=O)N(C3CCC(=O)NC3=O)C4=O)cc2c1NC1CC1 (centres unmarked) [Compound 460, 4-(cyclopropylamino)-6-((10-(2-((2-(2,6-dioxopiperidin-3-yl)-1,3-dioxoisoindolin-4-yl)oxy)acetamido)decyl)amino)-N-methylquinoline-3-carboxamide]
< 100 | CNC(=O)c1cnc2cc(OC)c(OCC3CCN(C(=O)CCCNC(=O)CNc4cccc5c4C(=O)N(C4CCC(=O)NC4=O)C5=O)CC3)cc2c1Nc1ccccc1 (centres unmarked) [Compound 370, 6-((1-(4-(2-((2-(2,6-dioxopiperidin-3-yl)-1,3-dioxoisoindolin-4-yl)amino)acetamido)butanoyl)piperidin-4-yl)methoxy)-7-methoxy-N-methyl-4-(phenylamino)quinoline-3-carboxamide]
< 100 | CNC(=O)c1cnc2ccc(-c3ccn(CCCCCCNC(=O)COc4cccc5c4C(=O)N(C4CCC(=O)NC4=O)C5=O)n3)cc2c1Nc1ccccc1 (centres unmarked) [Compound 361, 4-anilino-6-[1-[6-[[2-[2-(2,6-dioxo-3-piperidyl)-1,3-dioxo-isoindolin-4-yl]oxyacetyl]amino]hexyl]pyrazol-3-yl]-N-methyl-quinoline-3-carboxamide]
< 100 | COc1cc2ncc(C(=O)NC(C)(C)C)c(Nc3ccccc3)c2cc1-c1ccc(C(=O)NCCCCn2cc(CNc3cccc4c3C(=O)N(C3CCC(=O)NC3=O)C4=O)nn2)nc1 (centres unmarked) [Compound 373, N-(tert-butyl)-6-(6-((4-(4-(((2-(2,6-dioxopiperidin-3-yl)-1,3-dioxoisoindolin-4-yl)amino)methyl)-1H-1,2,3-triazol-1-yl)butyl)carbamoyl)pyridin-3-yl)-7-methoxy-4-(phenylamino)quinoline-3-carboxamide]
< 100 | CNC(=O)c1cnc2ccc(C(=O)NCC(=O)N3CCN(C(=O)CNc4cccc5c4C(=O)N(C4CCC(=O)NC4=O)C5=O)CC3)cc2c1Nc1ccccc1 (centres unmarked) [Compound 348, 4-anilino-N6-[2-[4-[2-[[2-(2,6-dioxo-3-piperidyl)-1,3-dioxo-isoindolin-4-yl]amino]acetyl]piperazin-1-yl]-2-oxo-ethyl]-N3-methyl-quinoline-3,6-dicarboxamide]
< 100 | CNC(=O)c1cnc2cc(OC)c(OCC3CCN(CCCCNC(=O)CNc4cccc5c4C(=O)N(C4CCC(=O)NC4=O)C5=O)CC3)cc2c1Nc1ccccc1 (centres unmarked) [Compound 371, 6-((1-(4-(2-((2-(2,6-dioxopiperidin-3-yl)-1,3-dioxoisoindolin-4-yl)amino)acetamido)butyl)piperidin-4-yl)methoxy)-7-methoxy-N-methyl-4-(phenylamino)quinoline-3-carboxamide]
< 100 | CNC(=O)c1cnc2cc(OC)c(-c3ccc(C(=O)NCCCCNC(=O)C(C)Nc4cccc5c4C(=O)N(C4CCC(=O)NC4=O)C5=O)c(F)c3)cc2c1Nc1ccccc1 (centres unmarked) [Compound 367, 6-(4-((4-(2-((2-(2,6-dioxopiperidin-3-yl)-1,3-dioxoisoindolin-4-yl)amino)propanamido)butyl)carbamoyl)-3-fluorophenyl)-7-methoxy-N-methyl-4-(phenylamino)quinoline-3-carboxamide]

SMILES | DC50 [nM]
CNC(=O)c1cnc2ccc(-c3ccc(OCCCCNC(=O)CNc4cccc5c4C(=O)N(C4CCC(=O)NC4=O)C5=O)nc3)cc2c1Nc1ccccc1 (centres unmarked) [Compound 369, 4-anilino-6-[6-[4-[[2-[[2-(2,6-dioxo-3-piperidyl)-1,3-dioxo-isoindolin-4-yl]amino]acetyl]amino]butoxy]-3-pyridyl]-N-methyl-quinoline-3-carboxamide] | < 100
